Where two headings read alike, the source gives them in different places. Where a SMILES comes first, the peptide text is derived from it. Bridges are numbered along the chain shown (N, C = ends). [ ]: non-standard residue; d: D form. The star is where a group is joined. DOTA = O=C(O)CN1CCN(CC(=O)O)CCN(CC(=O)*)CCN(CC(=O)O)CC1; Pro(cis-4-F) = O=C(O)[C@@H]1C[C@H](F)CN1; mTyr = N[C@@H](Cc1cccc(O)c1)C(=O)O; Hyp = O=C(O)[C@@H]1C[C@@H](O)CN1; Pentanoyl(4-Me) = CC(C)CCC(=O)*; Cit = NC(=O)NCCC[C@H](N)C(=O)O; Butoxycarbonyl = CCCCOC(=O)*; Pip = O=C(O)[C@@H]1CCCCN1; Nle = CCCC[C@H](N)C(=O)O; Orn = NCCC[C@H](N)C(=O)O; Api = NC1(C(=O)O)CCNCC1; Nva = CCC[C@H](N)C(=O)O; Pentanoyl = CCCCC(=O)*
What was measured:
human uPAR (uPAR-Fc) = target: T1, human uPAR (uPAR-Fc) (Homo sapiens, UniProt Q03405); assay: Surface plasmon resonance (SPR) assay, single cycle kinetics; type: binding; conditions: pKD category for uPAR SPR activity assay, uPAR-Fc on Protein A-Chip, 25°C; for Kd: read-out: pKD CAT (converted)
T1 construct: comprising amino acids Leu23-Arg303 according to UniProt entry Q03405.1; purchased R&D Systems 10378-UK-100
In short: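 uPAR-Fc (Leu23-Arg303 extracellular domains, human IgG1 Fc) captured on Protein A chip to ~2000 RU; single-cycle kinetics at 25°C in HEPES running buffer pH 7.4 with 0.1% DMSO. KD from double-referenced sensorgrams fitted to 1:1 Langmuir model, reported as pKD.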

[1] = target: T2, uPAR-expressing HEC-265 human endometrial adenocarcinoma cells (Homo sapiens, UniProt Q03405); assay: Competitive FACS binding assay; conditions: pIC50 category of FACS binding
T2 construct: Cell surface uPAR-expressing HEC-265 human endometrial adenocarcinoma cells; host or cells: HEC-265
In short: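 HEC-265 cells incubated 1 h at 4 °C with 10 nM biotinylated uPAR peptide tracer plus increasing test compound, then stained with APC-streptavidin on ice. Median APC fluorescence by flow cytometry; 4PL fit gives pIC50.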

T2 sequence (Q03405 23-335): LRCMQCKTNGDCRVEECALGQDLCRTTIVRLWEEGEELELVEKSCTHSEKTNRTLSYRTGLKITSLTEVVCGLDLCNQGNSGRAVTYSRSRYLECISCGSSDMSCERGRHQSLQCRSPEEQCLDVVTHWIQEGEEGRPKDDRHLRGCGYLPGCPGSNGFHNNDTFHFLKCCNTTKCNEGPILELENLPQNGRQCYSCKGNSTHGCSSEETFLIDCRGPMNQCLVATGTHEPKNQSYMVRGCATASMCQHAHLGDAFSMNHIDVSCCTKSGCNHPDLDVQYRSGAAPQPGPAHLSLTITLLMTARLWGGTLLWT
T1 sequence (Q03405 23-303): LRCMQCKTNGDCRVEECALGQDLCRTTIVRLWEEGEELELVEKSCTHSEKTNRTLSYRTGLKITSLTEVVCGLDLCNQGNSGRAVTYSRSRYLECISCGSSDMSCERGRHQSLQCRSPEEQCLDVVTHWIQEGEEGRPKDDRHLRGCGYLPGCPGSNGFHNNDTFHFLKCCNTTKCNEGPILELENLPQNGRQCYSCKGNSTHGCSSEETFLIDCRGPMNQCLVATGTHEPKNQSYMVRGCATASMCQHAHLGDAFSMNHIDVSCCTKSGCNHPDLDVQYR

| Molecule | Kd (human uPAR (uPAR-Fc); single cycle kinetics) [nM] | IC50 [1] [nM] | pKD CAT (human uPAR (uPAR-Fc)) | pIC50 CAT [1] | Kd (human uPAR (uPAR-Fc)) [nM] |
| --- | --- | --- | --- | --- | --- |
| CC[C@H](C)[C@@H]1NC(=O)[C@@H](CCCNC(=N)N)NC(=O)[C@@H]2CCCN2C(=O)[C@H](Cc2ccccc2)NC(=O)[C@H](Cc2ccc(O)cc2)NC(=O)[C@H](CCC(N)=O)NC(=O)[C@H](CCCNC(N)=O)NC(=O)[C@@H](NC(=O)CCC(C)C)CSSC[C@@H](C(N)=O)NC(=O)[C@H](CC(C)C)NC1=O [UPAR-357, iHex-[Cys-Cit-Gln-Tyr-Phe-Pro-arg-Ile-Leu-Cys]-NH2] ({Pentanoyl(4-Me)}-C[Cit]QYFP[dR]ILC-NH2; disulfide 1-10) | 1.58 to 10 | ≤ 10 |  |  |  |
| Butoc-[Cys-Cit-Lys(LuDOTA)-Tyr-Pcf-4Cfp-Hyp-Chg-Nva-Cys]-NH2 [UPAR-169] |  |  | A (pKD values ≥ 8.8) | A (pIC50 values ≥8.0) |  |
| CCCCOC(=O)N[C@H]1CSSC[C@@H](C(N)=O)NC(=O)[C@H](CCC)NC(=O)[C@H]([C@@H](C)CC)NC(=O)[C@@H]2C[C@@H](O)CN2C(=O)[C@@H]2C[C@H](F)CN2C(=O)[C@H](Cc2ccccc2)NC(=O)[C@H](Cc2cccc(O)c2)NC(=O)[C@H](CCCNC(=O)CN2CCN(CC(=O)O)CCN(CC(=O)O)CCN(CC(=O)O)CC2)NC(=O)[C@H]([C@@H](C)O)NC1=O [UPAR-415, Butoc-[Cys-Thr-Orn(DOTA)-My-Phe-4Cfp-Hyp-Ile-Nva-Cys]-NH2] (Butoxycarbonyl-CT[Orn](DOTA)[mTyr]F[Pro(cis-4-F)][Hyp]I[Nva]C-NH2; disulfide 1-10) | < 1.58 | ≤ 10 |  |  |  |
| CC[C@H](C)[C@@H]1NC(=O)[C@@H](C)NC(=O)[C@@H]2CCCCN2C(=O)[C@H](Cc2ccccc2)NC(=O)[C@H](Cc2ccc(O)cc2)NC(=O)[C@H](CCC(N)=O)NC(=O)[C@H](CCCNC(N)=O)NC(=O)[C@@H](NC(=O)CCC(C)C)CSSC[C@@H](C(N)=O)NC(=O)[C@H](CC(C)C)NC1=O [UPAR-232, iHex-[Cys-Cit-Gln-Tyr-Phe-Pip-ala-Ile-Leu-Cys]-NH2] ({Pentanoyl(4-Me)}-C[Cit]QYF[Pip][dA]ILC-NH2; disulfide 1-10) |  | ≤ 10 |  |  | 1.58 to 10 |
| CCCCC(=O)N[C@H]1CSSC[C@@H](C(N)=O)NC(=O)[C@H](CCC)NC(=O)[C@H]([C@@H](C)CC)NC(=O)[C@@H]2C[C@@H](O)CN2C(=O)[C@@H]2CCCN2C(=O)[C@H](Cc2ccccc2)NC(=O)[C@H](Cc2ccc(O)cc2)NC(=O)C2(CCN(C(=O)CN3CCN(CC(=O)O)CCN(CC(=O)O)CCN(CC(=O)O)CC3)CC2)NC(=O)[C@H]([C@@H](C)O)NC1=O [UPAR-288, Pent-[Cys-Thr-Apc(DOTA)-Tyr-Phe-Pro-Hyp-Ile-Nva-Cys]-NH2] (Pentanoyl-CT[Api](DOTA)YFP[Hyp]I[Nva]C-NH2; disulfide 1-10) |  | ≤ 10 |  |  | < 1.58 |
| CC[C@H](C)[C@@H]1NC(=O)[C@@H](C)NC(=O)[C@H](C)NC(=O)[C@H](Cc2ccccc2)NC(=O)[C@H](Cc2ccc(O)cc2)NC(=O)[C@H](CCC(N)=O)NC(=O)[C@H](CCCNC(N)=O)NC(=O)[C@@H](NC(=O)CCC(C)C)CSSC[C@@H](C(N)=O)NC(=O)[C@H](CC(C)C)NC1=O [UPAR-319, iHex-[Cys-Cit-Gln-Tyr-Phe-Ala-ala-Ile-Leu-Cys]-NH2] ({Pentanoyl(4-Me)}-C[Cit]QYFA[dA]ILC-NH2; disulfide 1-10) |  | 39.8 to 100 |  |  | 10 to 100 |
| CCCC[C@@H]1NC(=O)[C@H](CCCNC(=N)N)NC(=O)[C@@H](NC(=O)[C@H](CC(C)C)NC(=O)[C@H](CC(=O)O)NC(C)=O)CSSC[C@H](C(N)=O)NC(=O)[C@H](CC(C)C)NC(=O)[C@H]([C@@H](C)CC)NC(=O)[C@H](C)NC(=O)[C@@H]2CCCN2C(=O)[C@H](Cc2ccccc2)NC(=O)[C@H](Cc2ccc(O)cc2)NC1=O [UPAR-323, Ac-Asp-Leu-[Cys-Arg-Nle-Tyr-Phe-Pro-Ala-Ile-Leu-cys]-NH2] (Ac-DLCR[Nle]YFPAIL[dC]-NH2; disulfide 3-12) |  | 12.6 to 31.6 |  |  | 1.58 to 10 |

Source: patent EP4610269A1, “UROKINASE PLASMINOGEN ACTIVATOR SURFACE RECEPTOR (UPAR) LIGANDS FOR DIAGNOSTIC OR THERAPEUTIC USE” (3B Pharmaceuticals GmbH, priority 2024, dated 2025)
